Data from PubChem BioAssay (NCI).
Where “and” joins values, the source holds several entries; their conditions need not be identical. Identical values can stand only once.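 A five-concentration, 48-hour dose response in 96-well plates underlies each endpoint, interpolated linearly between surrounding concentrations. GI50 = concentration required for 50% inhibition of growth. The concentration for full growth arrest is given as TGI.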

Legend:
Assay in all cases: NCI tumour cell line growth inhibition, 48 h
EKVX NSCLC = tested on: EKVX NSCLC
SK-MEL-28 melanoma = tested on: SK-MEL-28 melanoma
TK-10 renal = tested on: TK-10 renal
A549 NSCLC = tested on: A549 NSCLC
HOP-62 NSCLC = tested on: HOP-62 NSCLC
MALME-3M melanoma = tested on: MALME-3M melanoma
NCI/ADR-RES ovarian = tested on: NCI/ADR-RES ovarian
SR leukemia = tested on: SR leukemia
K-562 leukemia = tested on: K-562 leukemia
HOP-92 NSCLC = tested on: HOP-92 NSCLC

CC1CCC(NC(=O)N(CCCl)N=O)CC1 (configuration not stated)
TGI (EKVX NSCLC): 119 µM
GI50 (SK-MEL-28 melanoma): 18.8 µM
TGI (SK-MEL-28 melanoma): 35.1 µM and 93.1 µM
GI50 (TK-10 renal): 45.2 µM
TGI (TK-10 renal): 125 µM
GI50 (A549 NSCLC): 23.6 µM
TGI (A549 NSCLC): 56.5 µM and 149 µM
GI50 (HOP-62 NSCLC): 71.2 µM
TGI (HOP-62 NSCLC): 93 µM
GI50 (MALME-3M melanoma): 26 µM
TGI (MALME-3M melanoma): 51.5 µM and 98.1 µM
TGI (NCI/ADR-RES ovarian): 129 µM
GI50 (SR leukemia): 0.832 µM
GI50 (K-562 leukemia): 0.122 µM
TGI (K-562 leukemia): 28.9 µM and 119 µM
TGI (HOP-92 NSCLC): 64.2 µM and 68.8 µM

COC(=O)c1nc(-c2ccccc2)oc1S(=O)(=O)Cc1ccccc1
GI50 (EKVX NSCLC): 14.4 µM
TGI (EKVX NSCLC): 30.1 µM
GI50 (SK-MEL-28 melanoma): 7.15 µM
TGI (SK-MEL-28 melanoma): 20.4 µM
GI50 (TK-10 renal): 1.74 µM
TGI (TK-10 renal): 3.19 µM
GI50 (A549 NSCLC): 17.5 µM
TGI (A549 NSCLC): 33.6 µM
GI50 (HOP-62 NSCLC): 26.8 µM
TGI (HOP-62 NSCLC): > 100 µM
GI50 (MALME-3M melanoma): 1.73 µM
TGI (MALME-3M melanoma): 3.44 µM
GI50 (NCI/ADR-RES ovarian): 16.9 µM
TGI (NCI/ADR-RES ovarian): 36.3 µM
GI50 (SR leukemia): 3.03 µM
TGI (SR leukemia): 16.5 µM
GI50 (K-562 leukemia): 2.07 µM
TGI (K-562 leukemia): 5.29 µM
GI50 (HOP-92 NSCLC): 1.61 µM
TGI (HOP-92 NSCLC): 3.12 µM

COc1c(C)c2c(c(O)c1C/C=C(\C)CCC(=O)O)C(=O)OC2
GI50 (EKVX NSCLC): 0.892 µM
TGI (EKVX NSCLC): > 100 µM
GI50 (SK-MEL-28 melanoma): 0.38 µM
TGI (SK-MEL-28 melanoma): > 100 µM
GI50 (TK-10 renal): 1.68 µM
TGI (TK-10 renal): > 100 µM
GI50 (A549 NSCLC): 0.239 µM
TGI (A549 NSCLC): > 100 µM
GI50 (HOP-62 NSCLC): 0.512 µM
TGI (HOP-62 NSCLC): > 100 µM
GI50 (MALME-3M melanoma): 0.714 µM
TGI (MALME-3M melanoma): > 100 µM
GI50 (NCI/ADR-RES ovarian): 0.514 µM
TGI (NCI/ADR-RES ovarian): > 100 µM
GI50 (SR leukemia): 0.158 µM
TGI (SR leukemia): > 100 µM
GI50 (K-562 leukemia): 0.123 µM
TGI (K-562 leukemia): > 100 µM
GI50 (HOP-92 NSCLC): 0.959 µM
TGI (HOP-92 NSCLC): > 100 µM

C=C(C)C(=O)Nc1ccc(NC(C)C)cc1
GI50 (EKVX NSCLC): > 100 µM
TGI (EKVX NSCLC): > 100 µM
GI50 (SK-MEL-28 melanoma): > 100 µM
TGI (SK-MEL-28 melanoma): > 100 µM
GI50 (TK-10 renal): > 100 µM
TGI (TK-10 renal): > 100 µM
GI50 (A549 NSCLC): > 100 µM
TGI (A549 NSCLC): > 100 µM
GI50 (HOP-62 NSCLC): > 100 µM
TGI (HOP-62 NSCLC): > 100 µM
GI50 (MALME-3M melanoma): > 100 µM
TGI (MALME-3M melanoma): > 100 µM
GI50 (NCI/ADR-RES ovarian): > 100 µM
TGI (NCI/ADR-RES ovarian): > 100 µM
GI50 (SR leukemia): > 100 µM
TGI (SR leukemia): > 100 µM
GI50 (K-562 leukemia): > 100 µM
TGI (K-562 leukemia): > 100 µM
GI50 (HOP-92 NSCLC): > 100 µM
TGI (HOP-92 NSCLC): > 100 µM

C=C1CCC2C3(C)COC(c4ccc(N(C)C)cc4)OC3CCC2(C)C1C/C=C1/C(=O)OCC1O (configuration not stated)
GI50 (EKVX NSCLC): 6.43 µM
TGI (EKVX NSCLC): 21.9 µM
GI50 (SK-MEL-28 melanoma): 2.34 µM
TGI (SK-MEL-28 melanoma): 5.4 µM
GI50 (TK-10 renal): 8 µM
TGI (TK-10 renal): 21 µM
GI50 (A549 NSCLC): 4.73 µM
TGI (A549 NSCLC): 17.3 µM
GI50 (HOP-62 NSCLC): 18.4 µM
TGI (HOP-62 NSCLC): 33.3 µM
GI50 (MALME-3M melanoma): 7.83 µM
TGI (MALME-3M melanoma): 22.2 µM
GI50 (NCI/ADR-RES ovarian): 3.83 µM
TGI (NCI/ADR-RES ovarian): 43.5 µM
GI50 (SR leukemia): 1.15 µM
TGI (SR leukemia): 3.77 µM
GI50 (K-562 leukemia): 1.22 µM
TGI (K-562 leukemia): 3.37 µM
GI50 (HOP-92 NSCLC): 6.4 µM
TGI (HOP-92 NSCLC): 21.7 µM

COc1cc2c(cc1C)NC(=O)/C2=C/c1ccccn1
GI50 (EKVX NSCLC): 0.0532 µM
TGI (EKVX NSCLC): 6.88 µM
GI50 (SK-MEL-28 melanoma): 10.5 µM
TGI (SK-MEL-28 melanoma): > 100 µM
GI50 (A549 NSCLC): 4.11 µM
TGI (A549 NSCLC): > 100 µM
GI50 (HOP-62 NSCLC): 4.24 µM
TGI (HOP-62 NSCLC): > 100 µM
GI50 (NCI/ADR-RES ovarian): 2.42 µM
TGI (NCI/ADR-RES ovarian): 6.27 µM
GI50 (SR leukemia): 3.18 µM
TGI (SR leukemia): > 100 µM
GI50 (K-562 leukemia): 2.71 µM
TGI (K-562 leukemia): > 100 µM
GI50 (HOP-92 NSCLC): 2.9 µM
TGI (HOP-92 NSCLC): 89.4 µM

O=C(O)C(/C=C/c1ccccc1)c1ccccc1 (configuration not stated)
TGI (EKVX NSCLC): > 100 µM
TGI (SK-MEL-28 melanoma): > 100 µM
TGI (TK-10 renal): > 100 µM
TGI (A549 NSCLC): > 100 µM
TGI (HOP-62 NSCLC): > 100 µM
TGI (MALME-3M melanoma): > 100 µM
TGI (NCI/ADR-RES ovarian): > 100 µM
TGI (SR leukemia): > 100 µM
TGI (K-562 leukemia): > 100 µM
TGI (HOP-92 NSCLC): > 100 µM
